Assay results from ChEMBL document CHEMBL1681728, “An automated, polymer-assisted strategy for the preparation of urea and thiourea derivatives of 15-membered azalides as potential antimalarial chemotherapeutics” (Bioorg Med Chem, 2011).

What was measured:
Format in all cases: functional, organism-based
[1] = test system: Plasmodium falciparum; experiment: Antimalarial activity against multidrug-resistant Plasmodium falciparum TM91C235 assessed as inhibition of [3H]hypoxanthine incorporation after 96 hrs by microtiter plate scintillation counting
[2] = test system: Plasmodium falciparum; experiment: Antimalarial activity against chloroquine-sensitive Plasmodium falciparum D6 assessed as inhibition of [3H]hypoxanthine incorporation after 96 hrs by microtiter plate scintillation counting
[3] = test system: Plasmodium falciparum; experiment: Antimalarial activity against chloroquine-,pyrimethamine-resistant Plasmodium falciparum W2 assessed as inhibition of [3H]hypoxanthine incorporation after 96 hrs by microtiter plate scintillation counting

Row | SMILES | IC50 [1] [nM] | IC50 [2] [nM] | IC50 [3] [nM]
1 | CC[C@H]1OC(=O)[C@H](C)[C@@H](O[C@H]2C[C@@](C)(OC)[C@@H](O)[C@H](C)O2)[C@H](C)[C@@H](O[C@@H]2O[C@H](C)C[C@H](N(C)C)[C@H]2O)[C@](C)(O)C[C@@H](C)CN(CCCNC(=O)Nc2ccc3c(c2)CCO3)[C@H](C)[C@@H](O)[C@]1(C)O | 923 | 2050 | 1590
2 | CC[C@H]1OC(=O)[C@H](C)[C@@H](O[C@H]2C[C@@](C)(OC)[C@@H](O)[C@H](C)O2)[C@H](C)[C@@H](O[C@@H]2O[C@H](C)C[C@H](N(C)C)[C@H]2O)[C@](C)(O)C[C@@H](C)CN(CCCNC(=O)Nc2ccc(C(C)C)cc2)[C@H](C)[C@@H](O)[C@]1(C)O | 78.3 | 225 | 70.9
3 | C=CCNC(=S)NCCCN1C[C@H](C)C[C@@](C)(O)[C@H](O[C@@H]2O[C@H](C)C[C@H](N(C)C)[C@H]2O)[C@@H](C)[C@H](O[C@H]2C[C@@](C)(OC)[C@@H](O)[C@H](C)O2)[C@@H](C)C(=O)O[C@H](CC)[C@@](C)(O)[C@H](O)[C@H]1C | 514 | 1140 | 276
4 | CC[C@H]1OC(=O)[C@H](C)[C@@H](O[C@H]2C[C@@](C)(OC)[C@@H](O)[C@H](C)O2)[C@H](C)[C@@H](O[C@@H]2O[C@H](C)C[C@H](N(C)C)[C@H]2O)[C@](C)(O)C[C@@H](C)CN(CCCNC(=S)Nc2cccc3nsnc23)[C@H](C)[C@@H](O)[C@]1(C)O | 101 | 176 | 88.2
5 | CC[C@H]1OC(=O)[C@H](C)[C@@H](O[C@H]2C[C@@](C)(OC)[C@@H](O)[C@H](C)O2)[C@H](C)[C@@H](O[C@@H]2O[C@H](C)C[C@H](N(C)C)[C@H]2O)[C@](C)(O)C[C@@H](C)CN(CCCNC(=S)Nc2cccnc2)[C@H](C)[C@@H](O)[C@]1(C)O | 801 | 1210 | 1200
6 | CC[C@H]1OC(=O)[C@H](C)[C@@H](O[C@H]2C[C@@](C)(OC)[C@@H](O)[C@H](C)O2)[C@H](C)[C@@H](O[C@@H]2O[C@H](C)C[C@H](N(C)C)[C@H]2O)[C@](C)(O)C[C@@H](C)CN(CCCNC(=S)NCCN2CCOCC2)[C@H](C)[C@@H](O)[C@]1(C)O | 3320 | 12400 | 2090
7 | CC[C@H]1OC(=O)[C@H](C)[C@@H](O[C@H]2C[C@@](C)(OC)[C@@H](O)[C@H](C)O2)[C@H](C)[C@@H](O[C@@H]2O[C@H](C)C[C@H](N(C)C)[C@H]2O)[C@](C)(O)C[C@@H](C)CN(CCCNC(=S)NC2CCCCCCCCCCC2)[C@H](C)[C@@H](O)[C@]1(C)O | 140 | 264 | 85
8 | CCOC(=O)c1ccc(NC(=S)NCCCN2C[C@H](C)C[C@@](C)(O)[C@H](O[C@@H]3O[C@H](C)C[C@H](N(C)C)[C@H]3O)[C@@H](C)[C@H](O[C@H]3C[C@@](C)(OC)[C@@H](O)[C@H](C)O3)[C@@H](C)C(=O)O[C@H](CC)[C@@](C)(O)[C@H](O)[C@H]2C)cc1 | 107 | 121 | 70.9
9 | CC[C@H]1OC(=O)[C@H](C)[C@@H](O[C@H]2C[C@@](C)(OC)[C@@H](O)[C@H](C)O2)[C@H](C)[C@@H](O[C@@H]2O[C@H](C)C[C@H](N(C)C)[C@H]2O)[C@](C)(O)C[C@@H](C)CN(CCCNC(=S)NCCCN2CCOCC2)[C@H](C)[C@@H](O)[C@]1(C)O | 5090 | 7010 | 1270
10 | CC[C@H]1OC(=O)[C@H](C)[C@@H](O[C@H]2C[C@@](C)(OC)[C@@H](O)[C@H](C)O2)[C@H](C)[C@@H](O[C@@H]2O[C@H](C)C[C@H](N(C)C)[C@H]2O)[C@](C)(O)C[C@@H](C)CN(CCCNC(=O)Nc2ccc(CC#N)cc2)[C@H](C)[C@@H](O)[C@]1(C)O | 571 | 1790 | 149
11 | CC[C@H]1OC(=O)[C@H](C)[C@@H](O[C@H]2C[C@@](C)(OC)[C@@H](O)[C@H](C)O2)[C@H](C)[C@@H](O[C@@H]2O[C@H](C)C[C@H](N(C)C)[C@H]2O)[C@](C)(O)C[C@@H](C)CN(CCCNC(=S)Nc2ccc([N+](=O)[O-])cc2)[C@H](C)[C@@H](O)[C@]1(C)O | 51.3 | 103 | 37.1
12 | CC[C@H]1OC(=O)[C@H](C)[C@@H](O[C@H]2C[C@@](C)(OC)[C@@H](O)[C@H](C)O2)[C@H](C)[C@@H](O[C@@H]2O[C@H](C)C[C@H](N(C)C)[C@H]2O)[C@](C)(O)C[C@@H](C)CN(CCCNC(=O)Nc2ccc(OCc3ccccc3)cc2)[C@H](C)[C@@H](O)[C@]1(C)O | 146 | 299 | 175
13 | CC[C@H]1OC(=O)[C@H](C)[C@@H](O[C@H]2C[C@@](C)(OC)[C@@H](O)[C@H](C)O2)[C@H](C)[C@@H](O[C@@H]2O[C@H](C)C[C@H](N(C)C)[C@H]2O)[C@](C)(O)C[C@@H](C)CN(CCCNC(=S)Nc2ccc(N(C)C)c3ccccc23)[C@H](C)[C@@H](O)[C@]1(C)O | 180 | 326 | 175
